{"source": "ChEMBL document CHEMBL5512637", "about": "“Development of Membrane-Targeting Fluorescent 2-Phenyl-1H-phenanthro[9,10-d]imidazole-Antimicrobial Peptide Mimic Conjugates against Methicillin-Resistant Staphylococcus aureus” (J Med Chem, 2024)", "key": {"Escherichia coli": {"test_system": "Escherichia coli", "test": "Antibacterial activity against Escherichia coli ATCC 25922 incubated for 16 to 18 hrs CLSI based by microbroth dilution assay", "type": "functional", "conditions": "time 16-18 hrs"}, "[1]": {"test": "Cytotoxicity against human L02 cells assessed as cell survival at 32 ug/ml by MTT assay relative to control", "type": "toxicity, cell-based", "conditions": "at 32 µg/mL, read-out: Survival"}, "[2]": {"test": "Toxicity in KM mouse assessed as survival rate at 5 to 80 mg/kg, sc measured for 24 hrs", "type": "organism-based", "conditions": "in vivo, dose 5-80 mg/kg"}, "Staphylococcus aureus [3]": {"test_system": "Staphylococcus aureus", "test": "Antibacterial activity against methicillin-resistant Staphylococcus aureus clinical isolate M-4 incubated for 16 to 18 hrs CLSI based by microbroth dilution assay", "type": "functional", "conditions": "time 16-18 hrs"}, "Staphylococcus aureus [4]": {"test_system": "Staphylococcus aureus", "test": "Antibacterial activity against methicillin-resistant Staphylococcus aureus clinical isolate M-10 incubated for 16 to 18 hrs CLSI based by microbroth dilution assay", "type": "functional", "conditions": "time 16-18 hrs"}, "Staphylococcus aureus [5]": {"test_system": "Staphylococcus aureus", "test": "Bactericidal activity against methicillin-resistant Staphylococcus aureus clinical isolate M-4 at 4 to 8 times MIC by time kill assay", "type": "functional, organism-based", "conditions": "TDE = time-dependent effect"}, "Staphylococcus aureus [6]": {"test_system": "Staphylococcus aureus", "test": "Antibacterial activity against methicillin-resistant Staphylococcus aureus clinical isolate M-4 upto 128 ug/ml incubated for 16 to 18 hrs in presence of phosphatidylglycerol by broth dilution method", "type": "functional, organism-based", "conditions": "dose <= 128.0 µg/ml, time 16-18 hrs"}, "[7]": {"test": "Toxicity in KM mouse assessed as histological abnormality in heart at 20 mg/kg, sc measured after 24 hrs by H and E staining based analysis", "type": "organism-based", "conditions": "in vivo"}, "[8]": {"test": "Toxicity in KM mouse infected with methicillin-resistant Staphylococcus aureus clinical isolate M-4 assessed as histopathological abnormality in spleen at 5 to 10 mg/kg, sc measured after 24 hrs by H and E staining based analysis", "type": "organism-based", "conditions": "in vivo, dose 5-10 mg/kg"}, "[9]": {"test": "Selectivity index, ratio of HC50 for sheep erythrocytes to MIC for Staphylococcus aureus ATCC 29213", "type": "toxicity", "conditions": "read-out: Selectivity Index"}, "[10]": {"test": "Stability in sheep plasma at MBC measured for 6 hrs", "type": "ADME, cell-free, Ovis aries"}, "[11]": {"test": "Toxicity in KM mouse assessed as change in hematocrit level at 20 mg/kg, sc measured after 24 hrs", "type": "organism-based", "conditions": "in vivo"}, "Staphylococcus aureus [12]": {"test_system": "Staphylococcus aureus", "test": "Antibacterial activity against methicillin-resistant Staphylococcus aureus clinical isolate M-4 infected in KM mouse assessed as survival rate of bacteria at 5 mg/kg, sc measured after 24 hrs relative to control", "type": "functional"}, "Staphylococcus aureus [13]": {"test_system": "Staphylococcus aureus", "test": "Antibacterial activity against methicillin-resistant Staphylococcus aureus clinical isolate M-4 upto 128 ug/ml incubated for 16 to 18 hrs in presence of peptidoglycan by broth dilution method", "type": "functional, organism-based", "conditions": "dose <= 128.0 µg/ml, time 16-18 hrs"}, "[14]": {"test": "Toxicity in KM mouse assessed as red swollen appearance of skin at administration site at 40 to 80 mg/kg, sc measured for 24 hrs", "type": "organism-based", "conditions": "in vivo, dose 40-80 mg/kg"}, "Staphylococcus aureus [15]": {"test_system": "Staphylococcus aureus", "test": "Antibacterial activity against methicillin-resistant Staphylococcus aureus clinical isolate M-4 infected in KM mouse assessed as reduction in skin inflammation at 10 mg/kg, sc measured after 24 hrs by H and E staining based analysis", "type": "functional, organism-based"}, "[16]": {"test": "Toxicity in KM mouse assessed as histological abnormality in liver at 20 mg/kg, sc measured after 24 hrs by H and E staining based analysis", "type": "organism-based", "conditions": "in vivo"}, "[17]": {"test": "Toxicity in KM mouse assessed as change in RBC count at 20 mg/kg, sc measured after 24 hrs", "type": "organism-based, Erythrocyte", "conditions": "in vivo"}, "Staphylococcus aureus [18]": {"test_system": "Staphylococcus aureus", "test": "Bactericidal activity against methicillin-resistant Staphylococcus aureus clinical isolate M-4 at 8 times MIC incubated for 4 hrs by time kill assay relative to control", "type": "functional"}, "Staphylococcus aureus [19]": {"test_system": "Staphylococcus aureus", "test": "Bactericidal activity against Staphylococcus aureus ATCC 29213 at 4 to 8 times MIC by time kill assay", "type": "functional, organism-based", "conditions": "TDE = time-dependent effect"}, "Staphylococcus aureus [20]": {"test_system": "Staphylococcus aureus", "test": "Antibacterial activity against methicillin-resistant Staphylococcus aureus clinical isolate M-4 infected in KM mouse assessed as survival rate of bacteria at 10 mg/kg, sc measured after 24 hrs relative to control", "type": "functional"}, "[21]": {"test": "Cytotoxicity against human L02 cells assessed as cell survival at 16 ug/ml by MTT assay relative to control", "type": "toxicity, cell-based", "conditions": "at 16 µg/mL, read-out: Survival"}, "Staphylococcus aureus [22]": {"test_system": "Staphylococcus aureus", "test": "Bactericidal activity against Staphylococcus aureus ATCC 29213 at 8 times MIC incubated for 1 hr by time kill assay relative to control", "type": "functional"}, "[23]": {"test": "Toxicity in KM mouse assessed as change in mental health at 5 to 80 mg/kg, sc measured for 24 hrs", "type": "organism-based", "conditions": "in vivo, dose 5-80 mg/kg"}, "Staphylococcus aureus [24]": {"test_system": "Staphylococcus aureus", "test": "Antibacterial activity against methicillin-resistant Staphylococcus aureus clinical isolate M-3 incubated for 16 to 18 hrs CLSI based by microbroth dilution assay", "type": "functional", "conditions": "time 16-18 hrs"}, "Staphylococcus aureus [25]": {"test_system": "Staphylococcus aureus", "test": "Disruption of cell membrane in methicillin-resistant Staphylococcus aureus clinical isolate M-4 assessed as increase in intracellular ROS level incubated for 1 hr by DCFH-DA dye based analysis", "type": "functional, organism-based", "conditions": "dose 1-32 µg/ml"}, "Staphylococcus aureus [26]": {"test_system": "Staphylococcus aureus", "test": "Antibacterial activity against methicillin-resistant Staphylococcus aureus clinical isolate M-9 incubated for 16 to 18 hrs CLSI based by microbroth dilution assay", "type": "functional", "conditions": "time 16-18 hrs"}, "[27]": {"test": "Toxicity in KM mouse assessed as histological abnormality in spleen at 20 mg/kg, sc measured after 24 hrs by H and E staining based analysis", "type": "organism-based", "conditions": "in vivo"}, "Staphylococcus aureus [28]": {"test_system": "Staphylococcus aureus", "test": "Antibacterial activity against methicillin-resistant Staphylococcus aureus clinical isolate M-2 incubated for 16 to 18 hrs CLSI based by microbroth dilution assay", "type": "functional", "conditions": "time 16-18 hrs"}, "Staphylococcus aureus [29]": {"test_system": "Staphylococcus aureus", "test": "Antibacterial activity against methicillin-resistant Staphylococcus aureus clinical isolate M-8 incubated for 16 to 18 hrs CLSI based by microbroth dilution assay", "type": "functional", "conditions": "time 16-18 hrs"}, "[30]": {"test": "Toxicity in KM mouse assessed as change in hemoglobin level at 20 mg/kg, sc measured after 24 hrs", "type": "organism-based", "conditions": "in vivo"}, "[31]": {"test": "Toxicity in KM mouse infected with methicillin-resistant Staphylococcus aureus clinical isolate M-4 assessed as histopathological abnormality in lungs at 5 to 10 mg/kg, sc measured after 24 hrs by H and E staining based analysis", "type": "organism-based", "conditions": "in vivo, dose 5-10 mg/kg"}, "Staphylococcus aureus [32]": {"test_system": "Staphylococcus aureus", "test": "Antibacterial activity against Staphylococcus aureus ATCC 29213 at 1 ug/ml in presence of exogenous DNA", "type": "functional, organism-based", "conditions": "dose 1.0 µg/ml"}, "Staphylococcus aureus [33]": {"test_system": "Staphylococcus aureus", "test": "Antibacterial activity against Staphylococcus aureus ATCC 29213 incubated for 16 to 18 hrs CLSI based by microbroth dilution assay", "type": "functional", "conditions": "time 16-18 hrs"}, "Staphylococcus aureus [34]": {"test_system": "Staphylococcus aureus", "test": "Antibacterial activity against methicillin-resistant Staphylococcus aureus clinical isolate M-5 incubated for 16 to 18 hrs CLSI based by microbroth dilution assay", "type": "functional", "conditions": "time 16-18 hrs"}, "[35]": {"test": "Toxicity in KM mouse infected with methicillin-resistant Staphylococcus aureus clinical isolate M-4 assessed as histopathological abnormality in kidneys at 5 to 10 mg/kg, sc measured after 24 hrs by H and E staining based analysis", "type": "organism-based", "conditions": "in vivo, dose 5-10 mg/kg"}, "[36]": {"test": "Hemolytic activity in sheep erythrocytes incubated for 1 hr by absorbance based assay", "type": "toxicity, cell-based, Ovis aries, Erythrocyte"}, "[37]": {"test": "Toxicity in KM mouse infected with methicillin-resistant Staphylococcus aureus clinical isolate M-4 assessed as histopathological abnormality in liver at 5 to 10 mg/kg, sc measured after 24 hrs by H and E staining based analysis", "type": "organism-based", "conditions": "in vivo, dose 5-10 mg/kg"}, "Staphylococcus aureus [38]": {"test_system": "Staphylococcus aureus", "test": "Induction of resistance development in Staphylococcus aureus ATCC 29213 at MIC measured after 20 passages", "type": "functional"}, "[39]": {"test": "Toxicity in KM mouse assessed as histological abnormality in kidney at 20 mg/kg, sc measured after 24 hrs by H and E staining based analysis", "type": "organism-based", "conditions": "in vivo"}}, "note": "Active and inactive are the calls of the source. The calls are words filed in the database; no cut-off is given here."}
{"smiles": "CCCCCNC(=O)C[N+](C)(C)CCCCn1c(-c2ccc(N(C)C)cc2)nc2c3ccccc3c3ccccc3c21.[Br-]", "values": [{"measurement": "MIC", "setting": "Escherichia coli", "value": 32, "unit": "µg/mL"}, {"measurement": "viability at 32 ug/ml", "setting": "[1]", "value": "> 72.2", "unit": "%"}, {"measurement": "survival at 24 h", "setting": "[2]", "value": 100, "unit": "%"}, {"measurement": "MIC", "setting": "Staphylococcus aureus [3]", "value": 0.5, "unit": "µg/mL"}, {"measurement": "MIC", "setting": "Staphylococcus aureus [4]", "value": 1, "unit": "µg/mL"}, {"measurement": "Activity", "setting": "Staphylococcus aureus [5]", "value": "Tde"}, {"measurement": "Activity", "setting": "Staphylococcus aureus [6]", "value": "inactive"}, {"measurement": "Activity", "setting": "[7]", "value": "Non-Toxic"}, {"measurement": "Activity", "setting": "[8]", "value": "Non-Toxic"}, {"measurement": "selectivity ratio", "setting": "[9]", "value": 859}, {"measurement": "Stability", "setting": "[10]", "value": "Stable"}, {"measurement": "Activity", "setting": "[11]", "value": "Non-Toxic"}, {"measurement": "survival at 5 mg/kg", "setting": "Staphylococcus aureus [12]", "value": 0.42, "unit": "%"}, {"measurement": "Activity", "setting": "Staphylococcus aureus [13]", "value": "Active"}, {"measurement": "Activity", "setting": "[14]", "value": "Toxic"}, {"measurement": "Activity", "setting": "Staphylococcus aureus [15]", "value": "Active"}, {"measurement": "Activity", "setting": "[16]", "value": "Non-Toxic"}, {"measurement": "Activity", "setting": "[17]", "value": "Non-Toxic"}, {"measurement": "Activity", "setting": "Staphylococcus aureus [18]", "value": 100, "unit": "%"}, {"measurement": "Activity", "setting": "Staphylococcus aureus [19]", "value": "Tde"}, {"measurement": "survival at 10 mg/kg", "setting": "Staphylococcus aureus [20]", "value": 0.01, "unit": "%"}, {"measurement": "viability at 16 ug/ml", "setting": "[21]", "value": 100, "unit": "%"}, {"measurement": "Activity", "setting": "Staphylococcus aureus [22]", "value": 100, "unit": "%"}, {"measurement": "Activity", "setting": "[23]", "value": "Non-Toxic"}, {"measurement": "MIC", "setting": "Staphylococcus aureus [24]", "value": 1, "unit": "µg/mL"}, {"measurement": "Activity", "setting": "Staphylococcus aureus [25]", "value": "Dose-Dependent Effect"}, {"measurement": "MIC", "setting": "Staphylococcus aureus [26]", "value": 0.5, "unit": "µg/mL"}, {"measurement": "Activity", "setting": "[27]", "value": "Non-Toxic"}, {"measurement": "MIC", "setting": "Staphylococcus aureus [28]", "value": 1, "unit": "µg/mL"}, {"measurement": "MIC", "setting": "Staphylococcus aureus [29]", "value": 0.5, "unit": "µg/mL"}, {"measurement": "Activity", "setting": "[30]", "value": "Non-Toxic"}, {"measurement": "Activity", "setting": "[31]", "value": "Non-Toxic"}, {"measurement": "Activity", "setting": "Staphylococcus aureus [32]", "value": "Active"}, {"measurement": "MIC", "setting": "Staphylococcus aureus [33]", "value": 1, "unit": "µg/mL"}, {"measurement": "MIC", "setting": "Staphylococcus aureus [34]", "value": 2, "unit": "µg/mL"}, {"measurement": "Activity", "setting": "[35]", "value": "Non-Toxic"}, {"measurement": "HC50 at 1 h", "setting": "[36]", "value": 859, "unit": "µg/mL"}, {"measurement": "Activity", "setting": "[37]", "value": "Non-Toxic"}, {"measurement": "Activity", "setting": "Staphylococcus aureus [38]", "value": "inactive"}, {"measurement": "Activity", "setting": "[39]", "value": "Non-Toxic"}]}
